From ChEMBL document CHEMBL3508693 (2016)

How the values were obtained:
[1] = Terminal elimination half-life of SPP100 following single oral dose of SPP100 150 mg capsule studied in healthy human; type: ADME, organism-based; conditions: plasma
CYP2A6 = target: T1, CYP2A6 (Homo sapiens, UniProt P11509); test: Inhibitory activity of 20 uM SPP100 on 37 Pmoles of cDNA-derived CYP2A6 enzyme in microsome prepared from human lymphoblastoid cell line; type: ADME, microsomes; design: conc 20 uM, interact cpd conc 3 uM; conditions: probe coumarine
T1 sequence (P11509 whole entry): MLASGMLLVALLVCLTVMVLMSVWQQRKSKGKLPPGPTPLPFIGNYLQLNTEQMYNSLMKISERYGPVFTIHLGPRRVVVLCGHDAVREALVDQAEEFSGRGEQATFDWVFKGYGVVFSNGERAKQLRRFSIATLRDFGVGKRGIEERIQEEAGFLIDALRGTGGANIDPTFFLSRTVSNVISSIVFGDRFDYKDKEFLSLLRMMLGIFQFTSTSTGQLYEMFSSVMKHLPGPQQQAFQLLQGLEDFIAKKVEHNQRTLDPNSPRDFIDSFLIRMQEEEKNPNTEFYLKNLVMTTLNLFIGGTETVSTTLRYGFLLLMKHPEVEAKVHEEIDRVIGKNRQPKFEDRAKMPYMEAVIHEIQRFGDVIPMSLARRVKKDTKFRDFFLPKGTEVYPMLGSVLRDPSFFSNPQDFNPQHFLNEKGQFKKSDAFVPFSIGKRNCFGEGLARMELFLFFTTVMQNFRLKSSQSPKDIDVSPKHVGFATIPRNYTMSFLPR

[2] = % SPP100 recovered in bile following single intravenous administration of 10 mg.Kg-1 [14C] aliskiren hemifumarate in male rat; type: ADME, organism-based, HAN:WIST(SPF); conditions: in vivo
[3] = % SPP100 recovered of receiver rat following duodenal infusion of radioactivity through bile from donor rat treated with single intravenous administration of 10 mg.Kg-1 [14C] aliskiren hemifumarate; type: ADME, organism-based, HAN:WIST(SPF); conditions: in vivo
CYP2E1 = CYP2E1 (Homo sapiens, UniProt P05181); test: Inhibition of CYP2E1 in human liver microsomes from 10 healthy donors at 200 uM aliskiren (SPP100); type: ADME, Microsome; design: conc 200 uM; conditions: probe chlorzoxazone (6-hydroxylation)
[4] = Excretion (0-168h) of radioactivity in urine following intravenous administration of [14C] aliskiren hemifumarate at 1 mg.Kg-1 level in marmoset; type: ADME, organism-based, Callithrix jacchus; conditions: in vivo
[5] = Excretion (24h) of radioactivity in faeces following intravenous administration of [14C] aliskiren hemifumarate at 10 mg.Kg-1 level in rat; type: ADME, organism-based, Lister-Hooded, Feces; conditions: in vivo
[6] = Plasma concentration of [14C] aliskiren hemifumarate in first 4h following single intravenous […] dose of [14C] aliskiren hemifumarate at 10 mg.Kg-1 level in mouse; type: ADME, organism-based, TgRasH2; conditions: in vivo
[7] = Biliary elimination of aliskiren following single intravenous dose of [14C] aliskiren hemifumarate at 10 mg.Kg-1 level in mouse; type: ADME, organism-based, TgRasH2, Bile; conditions: in vivo
[8] = Excretion of radioactivity (0-24h) in faeces following single oral dose of 500 mg.Kg-1 [14C] aliskiren hemifumarate in mouse; type: ADME, organism-based, TgRasH2, Feces; conditions: in vivo
[9] = Mean excretion of radioactivity (0-72h) in urine and faeces following single oral dose of 500 mg.Kg-1 [14C] aliskiren hemifumarate in mouse; type: ADME, organism-based, TgRasH2, Urine/Feces; conditions: in vivo
[10] = % of radioactivity (48h) recovered in urine of receiver rat following duodenal infusion of radioactivity through bile from donor rat treated with single intravenous administration of 10 mg.Kg-1 [14C] aliskiren hemifumarate; type: ADME, organism-based, HAN:WIST(SPF); conditions: in vivo
[11] = Excretion of radioactivity (72-96h) in urine following single intravenous dose of 10 mg.Kg-1 [14C] aliskiren hemifumarate in rat; type: ADME, organism-based, Albino HAN:WIST; conditions: in vivo
[12] = Tmax of radioactivity following repeated oral administration of [14C] aliskiren hemifumarate at 100 mg.Kg-1 level studied after 2h of dosing on day 1 in rat; type: ADME, organism-based, Albino HAN:WIST; conditions: in vivo
[13] = Concentration of radioactivity in the colon wall following repeated oral administration of [14C] aliskiren hemifumarate at 100 mg.Kg-1 level studied at 24h after 3rd dose in rat; type: ADME, organism-based, Albino HAN:WIST; conditions: in vivo
[14] = Concentration of radioactivity in the liver following repeated oral administration of [14C] aliskiren hemifumarate at 100 mg.Kg-1 level studied at 24h after 7th dose in rat; type: ADME, organism-based, Albino HAN:WIST; conditions: in vivo
[15] = Cmax of aliskiren hemifumarate following single dosing of SPP100B oral solution at 160 mg level studied on day 1 in men; type: ADME, organism-based; conditions: male, human, plasma
[16] = AUC of aliskiren hemifumarate following single dosing of SPP100B oral solution at 40 mg level studied on day 1 in men; type: ADME, organism-based; conditions: male, human, plasma
[17] = AUC of aliskiren hemifumarate following single dosing of SPP100B oral solution at 80 mg level studied on day 1 in men; type: ADME, organism-based; conditions: male, human, plasma
[18] = AUC of aliskiren hemifumarate following single dosing of SPP100B oral solution at 640 mg level studied on day 1 in men; type: ADME, organism-based; conditions: male, human, plasma
[19] = Cmax of aliskiren hemifumarate following 8 day once-daily dosing of SPP100B oral solution at 160 mg level studied on day 8 in men; type: ADME, organism-based; conditions: male, human, plasma
[20] = Cmax (0-96h) of unlabeled aliskiren hemifumarate following oral administration of aliskiren hemifumarate at 100 mg.Kg-1 level in rat; type: ADME, organism-based; conditions: Albino HAN:WIST, plasma
[21] = Cmaxspec of aliskiren hemifumarate following 2 week oral dosing of aliskiren hemifumarate at 50 mg.Kg-1 level studied on day 1 in female Callithrix jacchus; type: ADME, organism-based, Plasma; conditions: marmoset, in vivo, 336 h
[22] = Effect of 4 week oral dietary dosing of aliskiren hemifumarate at 2000 mg.Kg-1 level on histopathology of corpora lutea in female mouse; type: toxicity, organism-based, CB6F1-TGrasH2, Corpus luteum; conditions: in vivo, 672 h
[23] = Tmax of aliskiren hemifumarate following 4 week oral dietary dosing of aliskiren hemifumarate at 1000 mg.Kg-1 level in male mouse; type: ADME, organism-based; conditions: CB6F1-TGrasH2, mouse, in vivo
[24] = Tmax of aliskiren hemifumarate following 2 week oral dosing of aliskiren hemifumarate at 10 mg.Kg-1 level studied on day 1 in male Callithrix jacchus; type: ADME, organism-based; conditions: marmoset, plasma
[25] = Tmax of aliskiren hemifumarate following 2 week oral dosing of aliskiren hemifumarate at 10 mg.Kg-1 level studied on day 1 in female Callithrix jacchus; type: ADME, organism-based; conditions: marmoset, plasma
[26] = Tmax of aliskiren hemifumarate following 2 week oral dosing of aliskiren hemifumarate at 10 mg.Kg-1 level studied on day 14 in female Callithrix jacchus; type: ADME, organism-based; conditions: marmoset, plasma
[27] = AUC (0-24h)/dose of aliskiren hemifumarate following 4 week oral dietary dosing of aliskiren hemifumarate at 2000 mg.Kg-1 level in male mouse; type: ADME, organism-based, CB6F1-TGrasH2, Plasma; conditions: in vivo
[28] = t1/2 of aliskiren hemifumarate following 2 week oral dosing of aliskiren hemifumarate at 10 mg.Kg-1 level studied on […] in male Callithrix jacchus; type: ADME, organism-based; conditions: marmoset, plasma
[29] = AUC(0-24h) of aliskiren hemifumarate following 2 week oral dosing of aliskiren hemifumarate at 10 mg.Kg-1 level studied on day 14 in female Callithrix jacchus; type: ADME, organism-based; conditions: marmoset, plasma
[30] = AUCspec of aliskiren hemifumarate following 2 week oral dosing of aliskiren hemifumarate at 100 mg.Kg-1 level studied on day 14 in male Callithrix jacchus; type: ADME, organism-based, Plasma; conditions: marmoset, in vivo, 336 h
[31] = AUCspec of aliskiren hemifumarate following 2 week oral dosing of aliskiren hemifumarate at 50 mg.Kg-1 level studied on day 14 in female Callithrix jacchus; type: ADME, organism-based, Plasma; conditions: marmoset, in vivo, 336 h
[32] = Tmax (0-168h) of unlabeled aliskiren hemifumarate following single intravenous administration of aliskiren hemifumarate at 1 mg.Kg-1 level in marmoset; type: ADME, organism-based, Callithrix jacchus; conditions: plasma

CYP2E1, sequence (P05181 whole entry): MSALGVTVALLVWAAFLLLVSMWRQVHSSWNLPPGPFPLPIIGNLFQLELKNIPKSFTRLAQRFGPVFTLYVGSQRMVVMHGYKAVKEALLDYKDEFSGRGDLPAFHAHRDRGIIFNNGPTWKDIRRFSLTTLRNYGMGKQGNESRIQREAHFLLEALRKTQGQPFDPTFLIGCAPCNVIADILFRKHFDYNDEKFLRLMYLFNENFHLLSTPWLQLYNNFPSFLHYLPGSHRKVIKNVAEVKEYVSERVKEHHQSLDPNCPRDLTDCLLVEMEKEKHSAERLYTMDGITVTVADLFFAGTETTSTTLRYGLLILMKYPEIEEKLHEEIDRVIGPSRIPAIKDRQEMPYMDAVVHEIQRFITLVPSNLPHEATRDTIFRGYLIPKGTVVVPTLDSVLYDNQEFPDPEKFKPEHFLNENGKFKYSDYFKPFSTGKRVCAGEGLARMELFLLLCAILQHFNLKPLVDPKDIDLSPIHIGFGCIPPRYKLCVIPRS

## COCCCOc1cc(C[C@@H](C[C@H](N)[C@@H](O)C[C@H](C(=O)NCC(C)(C)C(N)=O)C(C)C)C(C)C)ccc1OC
[1]
  half-life: 41 h
CYP2A6
  inhibition at 20 µM: 2.6%
[2]
  Compound recovery: 64.3%
[3]
  Compound recovery: 60.4%
CYP2E1
  inhibition at 200 µM: -12.8%

## COCCCOc1cc(C[C@@H](C[C@H](N)[C@@H](O)C[C@H](C(=O)NCC([14CH3])([14CH3])C(N)=O)C(C)C)C(C)C)ccc1OC.O=C(O)/C=C/C(=O)O
[4]
  Radiolabel recovery: 4.04%
[5]
  Radiolabel recovery: 66%
[6]
  Compound recovery: 94%
[7]
  Radiolabel recovery: OUTCOME = Observed, VALUE = Elimination of aliskiren occurred mainly via the biliary or faecal route
[8]
  Radiolabel recovery: OUTCOME = Observed/Most of the radioactivity administered was excreted during first 24h after administration and the main route of excretion was the faecal pathway
[9]
  Radiolabel recovery: 89.8%
[10]
  Radiolabel recovery: 0.6%
[11]
  Radiolabel recovery: 2.5%
[12]
  Tmax(1): 2 h
[13]
  Radiolabel recovery: OUTCOME = Observed, VALUE = Highest radioactivity concentration was observed
[14]
  Radiolabel recovery: OUTCOME = Detected

## COCCCOc1cc(C[C@@H](C[C@H](N)[C@@H](O)C[C@H](C(=O)NCC(C)(C)C(N)=O)C(C)C)C(C)C)ccc1OC.COCCCOc1cc(C[C@@H](C[C@H](N)[C@@H](O)C[C@H](C(=O)NCC(C)(C)C(N)=O)C(C)C)C(C)C)ccc1OC.O=C(O)/C=C/C(=O)O [ALISKIREN FUMARATE]
[15]
  Cmax: 21.5 ng/mL
[16]
  AUC: 28.5 ng·h/mL
[17]
  AUC: 96.4 ng·h/mL
[18]
  AUC: 1190 ng·h/mL
[19]
  Cmax: 39.1 ng/mL
[20]
  Cmax: 270 nM
[21]
  Cmax normalised: 0.177 (ug/ml)/(mg/kg)
[22]
  Change in corpora lutea: OUTCOME = Absence of corpora lutea. No animals died during the study.
[23]
  Tmax: 3 h
[24]
  Tmax: 1 h
[25]
  Tmax: 1 h
[26]
  Tmax: 1 h
[27]
  AUC normalised: 3.86 ((ng/mL).hours)/(mg/kg/day)
[28]
  half-life: 5.63 h
[29]
  AUC at 24 h: 29000 ng·h/mL
[30]
  AUC normalised: 1.09 ((ug.h.ml-1)/(mg/kg)
[31]
  AUC normalised: 2.18 ((ug.h.ml-1)/(mg/kg)
[32]
  Tmax: 4.98 min
